Series [1] is described as follows: Evaluation of molecule stability (alkali treatment, LC/MS residual rate). The series is classed as physicochemical. Particulars: 500 μM peptide plus equivalent of 1 M sodium hydroxide, 15° C., 20 minutes, LC/MS peak area. As for the experimental part:
The molecule stability of the cyclic peptide was evaluated by analyzing the alkali-treated cyclic peptide aqueous solution by liquid chromatography mass spectroscopy (LC/MS).
The alkali treatment was carried out by the following method. A 500 μM cyclic peptide aqueous solution was prepared, an equivalent of 1 M sodium hydroxide aqueous solution was added to this aqueous solution, and the resultant mixture was incubated at 15° C. for 20 minutes to obtain an alkali-treated cyclic peptide aqueous solution. The cyclic peptide residual rate was calculated by setting the total area of all peaks of the cyclic peptide before alkali treatment in LC/MS to 100% and determining the proportion of the total area of all peaks in LC/MS of the alkali-treated cyclic peptide aqueous solution, and the molecule stability was evaluated according to the following evaluation standards. It is preferable that the evaluation result satisfies the evaluation standard A, B, or C.
The conditions of the LC/MS used for the evaluation of molecule stability were set as follows. • LC apparatus: Prominence series (pump, column oven, autosampler, detector) (manufactured by Shimadzu Corporation) • MS detector: LC/MS2010EV (manufactured by Shimadzu Corporation) • Column: Cadenza CD-C18, inner diameter 2.0 mm×length 250 mm, particle size: 3 μm (manufactured by Imtakt Corporation) • Eluent A: a solution (pH 3) containing 10 mM ammonium formate as a solute, where the solvent is 100% water. • Eluent B: a solution (pH 3) containing 10 mM ammonium formate as a solute, where the solvent is acetonitrile/water=90/10. • Flow rate: 0.2 mL/min • Injection volume: 4 μL • Gradient: 0% to 30%: Eluent B (0 to 30 minutes), 100%: Eluent B (30 to 40 minutes), 0%: Eluent B (40 to 60 minutes)(B indicates the eluent B) • Column temperature: 45° C. • Ionization method: electrospray ionization (ESI) positive, ESI negative

In series [2] the target is human integrin αvβ5 (Homo sapiens, UniProt P06756+P18084). As to the kind of experiment: Evaluation of integrin binding property (surface plasmon resonance, Biacore 3000, immobilized cyclic peptide). Particulars: peptide immobilized on CM5 sensor chip; human integrin αvβ5 30-1,000 nM, 25° C., HEPES buffer with 5 mM magnesium chloride; read-out: Integrin binding property (dissociation constant). The method, then: A commercially available CM5 sensor chip (a carboxymethyl dextran introduction type, manufactured by GE Healthcare) was set in a surface plasmon resonance apparatus (product name: Biacore 3000, manufactured by GE Healthcare), the sensor was stabilized at a flow rate of 10 μL/min of a 4-(2-hydroxyethyl)-1-piperazineethanesulfonic acid (HEPES) buffer solution (20 mM HEPES-HCl, 150 mM NaCl, pH 7.4) for surface plasmon resonance (SPR), and 70 μL of a mixed aqueous solution of 0.2 M 1-(3-dimethylaminopropyl)-3-ethylcarbodiimide (EDC) and 0.04 M N-hydroxysuccinimide (NHS) was added thereto. Then, 300 μL of the sample solution of each of the above cyclic peptides diluted to 0.2 g/L with the HEPES buffer solution was supplied to the sensor chip, blocking treatment was subsequently carried out with an ethanolamine solution, and washing was carried out with a sodium hydroxide aqueous solution, whereby immobilization was carried out. However, only for the cyclic peptide 22, in which the number of lysine residues having an amino group as the immobilizing functional group was 1, the sample solution to be supplied to the sensor chip was set to 5,000 μL instead of 300 μL. Similarly; 70 μL of the mixed aqueous solution of 0.2 M EDC and 0.04 M NHS was added to another flow channel of the same sensor chip without immobilizing the sample, and then blocking treatment and washing treatment were carried out. Hereinafter, the obtained immobilization-treated sensor chip is referred to as an “immobilization-treated sensor chip A”.
After adding human integrin αvβ5 for 10 minutes at 25° C., which was diluted to 30 nM using a HEPES buffer solution to which magnesium chloride was added to 5 mM, in each flow channel of the immobilization-treated sensor chip A prepared in (1) above, the same HEPES buffer solution (containing 5 mM magnesium chloride) was allowed to flow as a running buffer for 30 minutes, and measurement was carried out with Biacore 3000.
Then, a regeneration treatment of removing human integrin αvβ5 was carried out by allowing a 0.5 M EDTA aqueous solution to flow through each flow channel for 10 minutes. Further, the above-described measurement process consisting of adding integrin for 10 minutes, allowing a running buffer to flow for 30 minutes, carrying out measurement with Biacore 3000, and carrying out regeneration treatment with 0.5 M EDTA aqueous solution was carried out in the same manner for 100 nM human integrin αvβ5, 300 nM human integrin αvβ5, and 1,000 nM human integrin αvβ5. Dissociation constant between the cyclic peptide and human integrin αvβ5 was calculated from the difference between the value measured by Biacore 3000 in the flow channel immobilized with the cyclic peptide and the value measured by Biacore 3000 in the flow channel unimmobilized with the cyclic peptide, in a case where each concentration of human integrin αvβ5 was allowed to flow; and the integrin binding property was evaluated according to the following evaluation standards. It is preferable that the evaluation result satisfies the evaluation standard A, B, or C.

Numbered stars: 1 amine (or outer) side, 2 acyl side, 3 side chain; on linkers, the order of the positions; unused ones are H or OH. Bridge positions count the residues as written; N and C are the ends. Square brackets hold non-standard residues; d marks the D form. Peptide text beside a SMILES is read from it. hCys = N[C@@H](CCS)C(=O)O; Orn = NCCC[C@H](N)C(=O)O; Dab = NCC[C@H](N)C(=O)O; Dap = NC[C@H](N)C(=O)O; X2 = O=C(C[*:2])[*:1]

human integrin αvβ5, sequence (P06756 31-889 limits assumed): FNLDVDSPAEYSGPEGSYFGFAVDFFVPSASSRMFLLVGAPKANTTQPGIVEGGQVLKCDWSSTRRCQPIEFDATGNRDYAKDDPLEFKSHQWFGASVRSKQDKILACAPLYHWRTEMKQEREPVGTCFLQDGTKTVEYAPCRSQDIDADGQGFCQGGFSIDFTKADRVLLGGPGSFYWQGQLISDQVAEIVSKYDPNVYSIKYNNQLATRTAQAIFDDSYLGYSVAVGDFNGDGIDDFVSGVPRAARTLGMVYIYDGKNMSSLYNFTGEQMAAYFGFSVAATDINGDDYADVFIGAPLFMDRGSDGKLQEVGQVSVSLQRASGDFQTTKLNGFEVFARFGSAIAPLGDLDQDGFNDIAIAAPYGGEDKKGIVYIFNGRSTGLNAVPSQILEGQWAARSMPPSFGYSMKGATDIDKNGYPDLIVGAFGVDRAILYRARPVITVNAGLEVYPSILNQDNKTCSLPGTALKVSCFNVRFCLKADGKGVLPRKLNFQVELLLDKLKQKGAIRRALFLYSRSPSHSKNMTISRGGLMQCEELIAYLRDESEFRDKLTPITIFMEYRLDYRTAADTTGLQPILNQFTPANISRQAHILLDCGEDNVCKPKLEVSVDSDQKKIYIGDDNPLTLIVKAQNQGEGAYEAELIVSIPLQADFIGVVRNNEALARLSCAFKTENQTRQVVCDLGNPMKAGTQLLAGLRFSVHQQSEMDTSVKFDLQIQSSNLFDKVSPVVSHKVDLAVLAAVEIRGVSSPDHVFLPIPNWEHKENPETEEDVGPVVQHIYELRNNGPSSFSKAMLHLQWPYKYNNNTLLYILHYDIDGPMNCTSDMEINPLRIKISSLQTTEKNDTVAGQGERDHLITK
human integrin αvβ5, sequence (P06756 891-1048 partner limits assumed): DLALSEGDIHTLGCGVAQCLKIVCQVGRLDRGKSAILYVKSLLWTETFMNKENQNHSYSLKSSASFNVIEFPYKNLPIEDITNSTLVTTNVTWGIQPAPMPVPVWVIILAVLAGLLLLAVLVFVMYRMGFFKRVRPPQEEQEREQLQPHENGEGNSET
human integrin αvβ5, sequence (P18084 24-799): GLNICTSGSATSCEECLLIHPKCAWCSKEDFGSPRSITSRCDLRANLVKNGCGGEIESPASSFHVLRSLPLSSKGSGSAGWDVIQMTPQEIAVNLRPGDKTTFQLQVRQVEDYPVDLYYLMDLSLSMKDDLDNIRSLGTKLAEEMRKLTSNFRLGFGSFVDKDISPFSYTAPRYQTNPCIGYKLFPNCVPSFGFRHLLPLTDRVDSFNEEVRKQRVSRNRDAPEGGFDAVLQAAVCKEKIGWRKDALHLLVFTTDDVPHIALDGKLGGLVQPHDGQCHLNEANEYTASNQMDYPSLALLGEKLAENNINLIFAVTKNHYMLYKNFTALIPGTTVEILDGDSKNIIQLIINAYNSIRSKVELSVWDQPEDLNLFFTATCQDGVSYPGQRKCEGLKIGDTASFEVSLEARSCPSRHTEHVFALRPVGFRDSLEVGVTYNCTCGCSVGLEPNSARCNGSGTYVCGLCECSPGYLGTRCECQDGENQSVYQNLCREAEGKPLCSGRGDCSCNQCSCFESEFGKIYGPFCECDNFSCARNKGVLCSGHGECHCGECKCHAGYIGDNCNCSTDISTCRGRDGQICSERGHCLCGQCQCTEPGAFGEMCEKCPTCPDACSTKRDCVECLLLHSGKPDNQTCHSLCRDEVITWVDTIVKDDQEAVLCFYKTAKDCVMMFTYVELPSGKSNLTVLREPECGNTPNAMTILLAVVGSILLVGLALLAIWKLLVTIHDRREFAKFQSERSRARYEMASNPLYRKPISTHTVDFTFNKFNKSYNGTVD

Consider `CC[C@H](C)[C@@H]1NC(=O)CSCC[C@@H](C(=O)N[C@@H](CCCCN)C(=O)N[C@@H](CCCCN)C(=O)N[C@@H](CCCCN)C(=O)O)NC(=O)[C@H](Cc2ccccc2)NC(=O)[C@@H]2CCSCC(=O)NC[C@H](NC1=O)C(=O)N[C@@H](CCCNC(=N)N)C(=O)NCC(=O)N[C@@H](CC(=O)O)C(=O)N2` [Cyclic peptide 1] ({CH2CO}-I[Dap]RGD[hCys]F[hCys]KKK-OH; linker 2-6 via X2; thioether N-8), for which the “Molecule stability (cyclic peptide residual rate)” value in series [1] is “A (The residual rate of the cyclic peptide is 70% or more.)”. Further, the Kd in series [2] was in the range of 50 to 100 nM.
Regarding `CC[C@H](C)[C@@H]1NC(=O)CSCC[C@@H](C(=O)N[C@@H](CCCCN)C(=O)N[C@@H](CCCCN)C(=O)N[C@@H](CCCCN)C(=O)O)NC(=O)[C@H](Cc2ccccc2)NC(=O)[C@@H]2CCSCC(=O)NCC[C@H](NC1=O)C(=O)N[C@@H](CCCNC(=N)N)C(=O)NCC(=O)N[C@@H](CC(=O)O)C(=O)N2` [Cyclic peptide 2] ({CH2CO}-I[Dab]RGD[hCys]F[hCys]KKK-OH; linker 2-6 via X2; thioether N-8), in series [1], the “Molecule stability (cyclic peptide residual rate)” value is given as “A (The residual rate of the cyclic peptide is 70% or more.)”. The Kd in series [2] fell in the range of 100 to 200 nM.
In the case of `CC[C@H](C)[C@@H]1NC(=O)CSCC[C@@H](C(=O)N[C@@H](CCCCN)C(=O)N[C@@H](CCCCN)C(=O)N[C@@H](CCCCN)C(=O)O)NC(=O)[C@H](Cc2ccccc2)NC(=O)[C@@H]2CCSCC(=O)NCCC[C@H](NC1=O)C(=O)N[C@@H](CCCNC(=N)N)C(=O)NCC(=O)N[C@@H](CC(=O)O)C(=O)N2` [Cyclic peptide 3] ({CH2CO}-I[Orn]RGD[hCys]F[hCys]KKK-OH; linker 2-6 via X2; thioether N-8), the “Molecule stability (cyclic peptide residual rate)” value in series [1] was “A (The residual rate of the cyclic peptide is 70% or more.)”. Moreover, the Kd in series [2] was less than 50 nM.
In the case of `CC[C@H](C)[C@@H]1NC(=O)CSCC[C@@H](C(=O)N[C@@H](CCCCN)C(=O)N[C@@H](CCCCN)C(=O)N[C@@H](CCCCN)C(=O)O)NC(=O)[C@H](Cc2ccccc2)NC(=O)[C@@H]2CCSCC(=O)NCCCC[C@H](NC1=O)C(=O)N[C@@H](CCCNC(=N)N)C(=O)NCC(=O)N[C@@H](CC(=O)O)C(=O)N2` [Cyclic peptide 4] ({CH2CO}-IKRGD[hCys]F[hCys]KKK-OH; linker 2-6 via X2; thioether N-8), the “Molecule stability (cyclic peptide residual rate)” value in series [1] was “A (The residual rate of the cyclic peptide is 70% or more.)”. In addition, in series [2], the Kd was 50 to 100 nM.
With `N=C(N)NCCC[C@@H]1NC(=O)[C@@H]2CNC(=O)CSCC[C@H](NC(=O)[C@H](CC(=O)O)NC(=O)CNC1=O)C(=O)N[C@@H](Cc1ccccc1)C(=O)N[C@H](C(=O)N[C@@H](CCCCN)C(=O)N[C@@H](CCCCN)C(=O)N[C@@H](CCCCN)C(=O)O)CCSCC(=O)N[C@@H](CCCCN)C(=O)N2` [Cyclic peptide 21] ({CH2CO}-K[Dap]RGD[hCys]F[hCys]KKK-OH; linker 2-6 via X2; thioether N-8; N-terminus and C-terminus assumed), the “Molecule stability (cyclic peptide residual rate)” value in series [1] was “A (The residual rate of the cyclic peptide is 70% or more.)”.
With `N=C(N)NCCC[C@@H]1NC(=O)[C@@H]2CSSC[C@H](NC(=O)[C@H](CC(=O)O)NC(=O)CNC1=O)C(=O)N[C@@H](Cc1ccccc1)C(=O)N[C@H](C(=O)N[C@@H](CCCCN)C(=O)N[C@@H](CCCCN)C(=O)N[C@@H](CCCCN)C(=O)O)CSCC(=O)N[C@@H](CCCCN)C(=O)N2` [Cyclic peptide 48, reference compound] ({CH2CO}-KCRGDCFCKKK-OH; disulfide 2-6; thioether N-8; N-terminus and C-terminus assumed), in series [1], the “Molecule stability (cyclic peptide residual rate)” value was “D (The residual rate of the cyclic peptide is less than 30%.)”.

The record behind these values is US12624067B2, “Cyclic peptide, cell scaffold material, cell separating material, and medium” (FUJIFILM Corporation, priority 2019, dated 2026).
